Assay results published in patent publication US20220016112A1, “DIHYDROQUINOXALINE AND DIHYDROPYRIDOPYRAZINE DERIVATIVES AS RSV INHIBITORS” (Enanta Pharmaceuticals, Inc., priority 2020, published 2022).

These compounds were tested on Human RSV-A (“Long” strain) (assay: RSV in vitro cytoprotection assay in HEp-2 cells (ATPlite readout)). Conditions: human respiratory syncytial virus, 96 h; HEp-2 cells, genotype A “Long” strain RSV, 4-day incubation, ATPlite; read-out: Human RSV-A (“Long” strain) EC50.
Assay type: cell-based
Text: RSV is a single stranded negative sense RNA virus that causes respiratory tract infections which can be dangerous to infants, the elderly, and immunosuppressed individuals. Currently there is no vaccine, and therapeutic options are both costly and of limited effectiveness. These approved treatments are Ribavirin, and Palivizumab/Synagis (a monoclonal antibody). RSV has two genotypes, A and B, which differ primarily in the structure of the virus' surface “G” attachment protein. Our current primary screen focusses on RSV-A and uses an in vitro cytoprotection assay where compounds are added in 2-fold dilutions to cells which are then subjected to fully replicative viral particles. Cell viability is measured several days later along with separate measurements of compound cytotoxicity. This report focuses on the results of our most recent screening of compounds.
HEp-2 cells, (originally derived from tumors grown in irradiated-cortisonised weanling rats that had been injected with epidermoid carcinoma tissue from a person's larynx, but later found to be indistinguishable from HeLa cells by PCR DNA analysis), were used for the culturing of genotype A, “Long” strain RSV. Flasks were inoculated with RSV and viral stocks were collected once cytopathic effect (CPE) was greater than 90%. Viral stocks in 25% sucrose media were snap frozen using liquid nitrogen to increase viral stability. Viral stock titers were quantified by tissue culture infectious dose 50% (TCID50) using 8,000 cells per well and 3-fold viral dilutions across a 96-well plate, cultured for 4 days.
Following extensive parameter testing, the final assay is run as follows: HEp-2 cells are seeded into the inner 60 wells of a 96-well plate at 8,000 cells per well in a volume of 50 μL using Growth Media (DMEM without phenol red, 1% L-Glut, 1% Penn/Strep, 1% nonessential amino acids, 10% FBS). 2-Fold serial dilutions of control and test compounds are added to the wells in duplicate in a total volume of 25 μL. Viral stock is then added to the wells in a volume of 25 μL, bringing the total volume of each well to 100 μL. Each 96-well plate has a control column of 6 wells with cells and virus but no compound (negative control, max CPE), a column with cells but no compound or virus (positive control, minimum CPE), and a column with no cells or virus or compound (background plate/reagent control). The control wells with cells but no virus are given an additional 25 uL of growth media containing an equal quantity of sucrose as those wells receiving the viral stock in order to keep consistent in media and volume conditions. The outer wells of the plate are filled with 125 μL of growth media to act as a thermal and evaporative moat around the test wells. Following a 4-day incubation period, the plates are read using ATPlite (50 uL added per well), which quantifies the amount of ATP (a measure of cell health) present in each well. Assay plates are read using the Envision luminometer. In parallel, cytotoxicity is examined on an additional 96-well plate treated in an identical manner, but substituting the 25 μL of viral stock for 25 μL of growth media. […] EC50 ranges are as follows: A<0.01 μM; B 0.01-0.05 μM; C>0.05 μM.

Row | EC50 | Compound
1 | 10 to 50 nM | Cc1cnc(N2CC3(CCOCC3)C2)c(C(=O)Nc2ccc(C(=O)N3c4ccccc4N=C(c4ccc(C(=O)NC5CC5)s4)[C@@H]3C)cc2)c1 [Example 1]
2 | > 50 nM | Cc1cnc(N2CC3(CCOCC3)C2)c(C(=O)Nc2ccc(C(=O)N3c4ccccc4N=C(c4ccc(C(=O)Nc5c(C)cccc5F)s4)[C@@H]3C)cc2)c1 [Example 2]
3 | > 50 nM | Cc1cnc(N2CC3(CCOCC3)C2)c(C(=O)Nc2ccc(C(=O)N3c4ccccc4N=C(c4ccc(C(=O)NC5CCC5)s4)[C@@H]3C)cc2)c1 [Example 3]
4 | > 50 nM | Cc1cnc(N2CC3(CCOCC3)C2)c(C(=O)Nc2ccc(C(=O)N3c4ccccc4N=C(c4ccc(C(=O)NC5CC5)cc4)[C@@H]3C)cc2)c1 [Example 4]
5 | > 50 nM | Cc1cnc(N2CC3(CCOCC3)C2)c(C(=O)Nc2ccc(C(=O)N3c4ccccc4N=C(c4ccc(C(=O)Nc5c(C)cccc5F)cc4)[C@@H]3C)cc2)c1 [Example 5]
6 | < 10 nM | Cc1cnc(N2CC3(CCOCC3)C2)c(C(=O)Nc2ccc(C(=O)N3c4ccccc4N=C(c4ccc(C(=O)NC5CC5)s4)[C@H]3C)cc2)c1 [Example 6]
7 | 10 to 50 nM | Cc1cnc(N2CC3(CCOCC3)C2)c(C(=O)Nc2ccc(C(=O)N3c4ccccc4N=C(c4ccc(C(=O)Nc5c(C)cccc5F)s4)[C@H]3C)cc2)c1 [Example 7]
8 | < 10 nM | Cc1cnc(N2CC3(CCOCC3)C2)c(C(=O)Nc2ccc(C(=O)N3c4ccccc4N=C(c4ccc(C(=O)NC5(C)CC5)s4)[C@H]3C)cc2)c1 [Example 8]
9 | < 10 nM | Cc1cnc(N2CC3(CCOCC3)C2)c(C(=O)Nc2ccc(C(=O)N3c4ccccc4N=C(c4ccc(C(=O)NC5CCC5)s4)[C@H]3C)cc2)c1 [Example 9]
10 | 10 to 50 nM | Cc1cnc(N2CC3(CCOCC3)C2)c(C(=O)Nc2ccc(C(=O)N3c4ccccc4N=C(c4ccc(C(=O)NC5CC(F)(F)C5)s4)[C@H]3C)cc2)c1 [Example 10]
11 | < 10 nM | Cc1cnc(N2CC3(CCOCC3)C2)c(C(=O)Nc2ccc(C(=O)N3c4ccccc4N=C(c4ccc(C(=O)NC5(C)CCC5)s4)[C@H]3C)cc2)c1 [Example 11]
12 | < 10 nM | Cc1cnc(N2CC3(CCOCC3)C2)c(C(=O)Nc2ccc(C(=O)N3c4ccccc4N=C(c4ccc(C(=O)NC56CC(C5)C6)s4)[C@H]3C)cc2)c1 [Example 12]
13 | < 10 nM | Cc1cnc(N2CC3(CCOCC3)C2)c(C(=O)Nc2ccc(C(=O)N3c4ccccc4N=C(c4ccc(C(=O)NC56CC(C)(C5)C6)s4)[C@H]3C)cc2)c1 [Example 13]
14 | 10 to 50 nM | Cc1cnc(N2CC3(CCOCC3)C2)c(C(=O)Nc2ccc(C(=O)N3c4ccccc4N=C(c4ccc(C(=O)Nc5ncccc5F)s4)[C@H]3C)cc2)c1 [Example 14]
15 | < 10 nM | Cc1ccc(C(=O)Nc2ccc(C(=O)N3c4ccccc4N=C(c4ccc(C(=O)NC5CC5)s4)[C@H]3C)cc2)c(N2CC3(CCOCC3)C2)n1 [Example 15]
16 | < 10 nM | Cc1ccc(C(=O)Nc2ccc(C(=O)N3c4ccccc4N=C(c4ccc(C(=O)NC5CCC5)s4)[C@H]3C)cc2)c(N2CC3(CCOCC3)C2)n1 [Example 16]

Row | EC50 | Compound
17 | < 10 nM | C[C@@H]1C(c2ccc(C(=O)NC3CC3)s2)=Nc2ccccc2N1C(=O)c1ccc(NC(=O)c2cc3c(nc2N2CC4(CCOCC4)C2)CCC3)cc1 [Example 17]
18 | < 10 nM | C[C@@H]1C(c2ccc(C(=O)NC3CCC3)s2)=Nc2ccccc2N1C(=O)c1ccc(NC(=O)c2cc3c(nc2N2CC4(CCOCC4)C2)CCC3)cc1 [Example 18]
19 | < 10 nM | C[C@@H]1C(c2ccc(C(=O)NC3CC3)s2)=Nc2ccccc2N1C(=O)c1ccc(NC(=O)c2cc(C3CC3)cnc2N2CC3(CCOCC3)C2)cc1 [Example 19]
20 | < 10 nM | C[C@@H]1C(c2ccc(C(=O)NC3CCC3)s2)=Nc2ccccc2N1C(=O)c1ccc(NC(=O)c2cc(C3CC3)cnc2N2CC3(CCOCC3)C2)cc1 [Example 20]
21 | < 10 nM | CCc1cnc(N2CC3(CCOCC3)C2)c(C(=O)Nc2ccc(C(=O)N3c4ccccc4N=C(c4ccc(C(=O)NC5CC5)s4)[C@H]3C)cc2)c1 [Example 21]
22 | < 10 nM | CCc1cnc(N2CC3(CCOCC3)C2)c(C(=O)Nc2ccc(C(=O)N3c4ccccc4N=C(c4ccc(C(=O)NC5CCC5)s4)[C@H]3C)cc2)c1 [Example 22]
23 | 10 to 50 nM | C[C@@H]1C(c2ccc(C(=O)NC3CC3)s2)=Nc2ccccc2N1C(=O)c1ccc(NC(=O)c2cc(C(F)(F)F)cnc2N2CC3(CCOCC3)C2)cc1 [Example 23]
24 | 10 to 50 nM | C[C@@H]1C(c2ccc(C(=O)NC3CCC3)s2)=Nc2ccccc2N1C(=O)c1ccc(NC(=O)c2cc(C(F)(F)F)cnc2N2CC3(CCOCC3)C2)cc1 [Example 24]
25 | > 50 nM | Cc1cnc(N2CC3(CCOCC3)C2)c(C(=O)Nc2ccc(C(=O)N3c4ccccc4N=C(c4ccc(C(=O)NC5CC5)cc4)[C@H]3C)cc2)c1 [Example 25]
26 | > 50 nM | Cc1cnc(N2CC3(CCOCC3)C2)c(C(=O)Nc2ccc(C(=O)N3c4ccccc4N=C(c4ccc(C(=O)Nc5c(C)cccc5F)cc4)[C@H]3C)cc2)c1 [Example 26]
27 | > 50 nM | Cc1cnc(N2CC3(CCOCC3)C2)c(C(=O)Nc2ccc(C(=O)N3c4ccccc4N=C(c4ccc(C(=O)NC5CC5)s4)C3(C)C)cc2)c1 [Example 27]
28 | < 10 nM | Cc1cnc(N2CC3(CCOCC3)C2)c(C(=O)Nc2ccc(C(=O)N3c4ccccc4N=C(c4ccc(C(=O)NC5CCC5)s4)C3(C)C)cc2)c1 [Example 28]
29 | 10 to 50 nM | Cc1cnc(N2CC3(CCOCC3)C2)c(C(=O)Nc2ccc(C(=O)N3c4cccnc4N=C(c4ccc(C(=O)NC5CCC5)s4)[C@H]3C)cc2)c1 [Example 29]
30 | > 50 nM | Cc1cnc(N2CC3(CCOCC3)C2)c(C(=O)Nc2ccc(C(=O)N3c4ncccc4N=C(c4ccc(C(=O)NC5CC5)s4)[C@H]3C)cc2)c1 [Example 30]
31 | 10 to 50 nM | Cc1cnc(N2CC3(CCOCC3)C2)c(C(=O)Nc2ccc(C(=O)N3c4ncccc4N=C(c4ccc(C(=O)NC5CCC5)s4)[C@H]3C)cc2)c1 [Example 31]

Same assay, conditions: human respiratory syncytial virus, HEp-2

Row | Compound | EC50
32 | O=C(Nc1ccccc1F)N[C@H]1N=C(c2ccccc2)c2ccccc2NC1=O [RSV-604, reference compound] | ~2400 nM
